Data as given in patent publication US7919468B2, “Compounds useful as modulators of the proteasome activity” (Centre National de la Recherche Scientifique (C.N.R.S.), priority 2005, dated 2011).

Legend:
[1] = patients enrolled in clinical trials (thrombocytopaenia, fatigue, peripheral neuropathy, neutropenia); cited from earlier work
cathepsin A = target: T1, cathepsin A (Homo sapiens, UniProt P10619); conditions: cited from earlier work
T1 sequence (P10619 29-480): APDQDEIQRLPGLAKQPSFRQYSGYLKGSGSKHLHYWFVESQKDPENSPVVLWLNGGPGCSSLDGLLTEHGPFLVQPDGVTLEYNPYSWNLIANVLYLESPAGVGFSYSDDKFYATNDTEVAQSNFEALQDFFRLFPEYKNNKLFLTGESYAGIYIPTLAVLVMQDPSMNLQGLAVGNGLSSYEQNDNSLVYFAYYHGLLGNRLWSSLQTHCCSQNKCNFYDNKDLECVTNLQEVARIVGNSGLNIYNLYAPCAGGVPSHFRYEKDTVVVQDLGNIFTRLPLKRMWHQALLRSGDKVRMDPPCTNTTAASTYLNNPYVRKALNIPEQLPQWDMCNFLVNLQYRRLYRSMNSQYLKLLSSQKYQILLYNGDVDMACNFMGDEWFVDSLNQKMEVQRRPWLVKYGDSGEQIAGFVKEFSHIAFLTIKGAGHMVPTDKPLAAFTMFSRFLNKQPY

[2] = target: cytosolic tripeptidyl peptidase II (Homo sapiens, UniProt P29144); conditions: cited from earlier work
[3] = tested on: T2, rabbit 20S proteasome, chymotrypsin-like (CT-L) activity; assay: Rabbit 20S proteasome fluorescent assay, chymotrypsin-like activity (Suc-LLVY-amc); format: biochemical; conditions: [Compound]=100 μM, pH 7.5, 30° C.
T2 construct: other: [Compound]=100 μM, pH 7.5, 30° C
Procedure: (§1) 20S proteasome from rabbit reticulocyte was from commercial source (Alexis Biochemicals)
(§2) Semi-automatic fluorescent assays using Suc-LLVY-amc (SEQ ID NO: 2) for chymotrypsin-like activity, Z-LLE-SNA for post-acid activity and Boc-LLR-amc for trypsin-like activity of proteasome were performed at pH 7.5 and 30° C. using BMG Fluostar microplate reader (Suc=succinyl; amc=7-amino-4-methylcoumarin; Z=benzyloxycarbonyl; NA=2-naphtylamine; Boc=tert-butoxycarbonyl). The buffers were: 20 mM Tris, 1 mM DTT, 10% glycerol, 3% (v/v) DMSO (ChT-L and PA activities); 20 mM Tris, 1 mM DTT, 10% glycerol, 3% (v/v) DMSO. Studied compounds were dissolved in DMSO prior dissolution in the buffer. Proteasome was incubated for 15 min at 30° C. in the presence of the studied compound (0.1-100 μM). A control assay in the absence of tested compounds contained DMSO at the same concentration (3%, v/v). The fluorogenic proteasome substrate was then added and the hydrolysis of the appropriate fluorescent substrate was monitored for 1 h (λexc=360, λem=465 nm for amc substrates and λexc=340, λem=405 nm for the βNA substrate). Initial rates determined in control experiments were considered to be 100% of the peptidasic activity; initial rates that were above 100% in the presence of a test compound were considered to be activations, while initial rates below 100% were considered to be inhibitions. For weak inhibitors, the percentage of inhibition at a reference concentration (100 μM) is reported. The results, expressed in % inhibition (or activation factor), were obtained by calculating the average of at least two independent experiments, the variability was less than 10%. The inhibitory activity of more efficient compounds are expressed as IC50 calculated by fitting the experimental data to the equation 1: % Inhibition=100 [I]0/(IC50+[I]0)=100 (v0−vi/v0), or equation 2: % Inhibition=100 [I]0^nH/(IC50^nH+[I]0^nH), nH is the Hill number. v0 and vi are the initial rates in the absence and in the presence of inhibitor. A Dixon plot has been used to determine the inhibition constant Ki for competitive inhibition by compound A215. The reversible character of inhibition or activation was determined by measuring the activity of treated enzyme after the inhibitor molecule has been withdrawn from the reaction medium.
(§3) Inhibition of Rabbit 20 S Proteasome (pH=7.5, 30° C.)
(§4) Activation of Rabbit 20 S Proteasome (pH=7.5, 30° C., [Compound]=100 μM)

[4] = tested on: rabbit 20S proteasome, post-acid (PA) activity; assay: Rabbit 20S proteasome fluorescent assay, post-acid activity (Z-LLE-βNA); format: biochemical; conditions: [Compound]=100 μM, pH 7.5, 30° C.
Procedure: as §1, §2, §3, §4

[5] = tested on: rabbit 20S proteasome, trypsin-like (T-L) activity; assay: Rabbit 20S proteasome fluorescent assay, trypsin-like activity (Boc-LLR-amc); format: biochemical; conditions: [Compound]=100 μM, pH 7.5, 30° C.
Procedure: as §1, §2, §3, §4

m-calpain = target: T3, m-calpain (Homo sapiens, UniProt P17655); conditions: cited from earlier work
T3 sequence (P17655 1-700): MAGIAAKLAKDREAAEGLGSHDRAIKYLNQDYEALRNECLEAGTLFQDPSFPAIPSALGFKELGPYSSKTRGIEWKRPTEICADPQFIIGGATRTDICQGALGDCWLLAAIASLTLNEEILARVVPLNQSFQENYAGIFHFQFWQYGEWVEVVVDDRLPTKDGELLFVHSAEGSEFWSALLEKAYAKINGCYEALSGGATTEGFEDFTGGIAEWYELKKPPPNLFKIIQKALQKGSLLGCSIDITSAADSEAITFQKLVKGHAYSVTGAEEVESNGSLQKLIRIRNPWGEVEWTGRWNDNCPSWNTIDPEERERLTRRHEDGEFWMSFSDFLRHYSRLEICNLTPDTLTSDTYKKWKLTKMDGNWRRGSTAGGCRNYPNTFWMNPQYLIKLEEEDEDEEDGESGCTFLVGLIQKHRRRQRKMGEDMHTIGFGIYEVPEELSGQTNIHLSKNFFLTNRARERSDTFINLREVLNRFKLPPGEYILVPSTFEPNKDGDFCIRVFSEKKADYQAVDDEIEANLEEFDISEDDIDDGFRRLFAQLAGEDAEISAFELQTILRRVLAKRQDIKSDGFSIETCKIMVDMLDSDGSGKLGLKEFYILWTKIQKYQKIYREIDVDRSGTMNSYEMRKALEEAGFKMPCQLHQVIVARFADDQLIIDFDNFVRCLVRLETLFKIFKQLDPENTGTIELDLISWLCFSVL
T3 sequence (P04632 1-268 partner): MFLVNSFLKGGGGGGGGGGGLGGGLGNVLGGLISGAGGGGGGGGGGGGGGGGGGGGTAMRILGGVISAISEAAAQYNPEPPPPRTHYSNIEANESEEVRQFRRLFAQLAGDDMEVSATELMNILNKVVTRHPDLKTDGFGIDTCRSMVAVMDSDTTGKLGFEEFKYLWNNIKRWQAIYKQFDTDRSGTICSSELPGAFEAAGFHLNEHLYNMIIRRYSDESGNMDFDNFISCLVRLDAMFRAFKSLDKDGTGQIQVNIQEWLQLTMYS

cathepsin-L = cathepsin-L (Homo sapiens, UniProt P07711); conditions: cited from earlier work
trypsin = target: T4, trypsin (Bos taurus, UniProt P00760); conditions: cited from earlier work
T4 construct: gene PRSS1
T4 sequence (P00760 24-246): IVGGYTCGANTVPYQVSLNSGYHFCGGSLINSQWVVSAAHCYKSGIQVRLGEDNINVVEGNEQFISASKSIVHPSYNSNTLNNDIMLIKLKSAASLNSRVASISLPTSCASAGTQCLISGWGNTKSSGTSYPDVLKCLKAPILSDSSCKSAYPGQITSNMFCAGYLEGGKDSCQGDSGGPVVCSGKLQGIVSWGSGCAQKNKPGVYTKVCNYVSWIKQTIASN

Sequence of cathepsin-L (P07711 114-333, species assumed): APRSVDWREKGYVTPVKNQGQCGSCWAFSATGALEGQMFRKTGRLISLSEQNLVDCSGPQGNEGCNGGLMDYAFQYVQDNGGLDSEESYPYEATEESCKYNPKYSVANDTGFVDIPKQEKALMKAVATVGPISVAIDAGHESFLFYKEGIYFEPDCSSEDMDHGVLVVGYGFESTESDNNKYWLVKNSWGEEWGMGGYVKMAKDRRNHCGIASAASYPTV
Sequence of cytosolic tripeptidyl peptidase II (P29144 whole entry): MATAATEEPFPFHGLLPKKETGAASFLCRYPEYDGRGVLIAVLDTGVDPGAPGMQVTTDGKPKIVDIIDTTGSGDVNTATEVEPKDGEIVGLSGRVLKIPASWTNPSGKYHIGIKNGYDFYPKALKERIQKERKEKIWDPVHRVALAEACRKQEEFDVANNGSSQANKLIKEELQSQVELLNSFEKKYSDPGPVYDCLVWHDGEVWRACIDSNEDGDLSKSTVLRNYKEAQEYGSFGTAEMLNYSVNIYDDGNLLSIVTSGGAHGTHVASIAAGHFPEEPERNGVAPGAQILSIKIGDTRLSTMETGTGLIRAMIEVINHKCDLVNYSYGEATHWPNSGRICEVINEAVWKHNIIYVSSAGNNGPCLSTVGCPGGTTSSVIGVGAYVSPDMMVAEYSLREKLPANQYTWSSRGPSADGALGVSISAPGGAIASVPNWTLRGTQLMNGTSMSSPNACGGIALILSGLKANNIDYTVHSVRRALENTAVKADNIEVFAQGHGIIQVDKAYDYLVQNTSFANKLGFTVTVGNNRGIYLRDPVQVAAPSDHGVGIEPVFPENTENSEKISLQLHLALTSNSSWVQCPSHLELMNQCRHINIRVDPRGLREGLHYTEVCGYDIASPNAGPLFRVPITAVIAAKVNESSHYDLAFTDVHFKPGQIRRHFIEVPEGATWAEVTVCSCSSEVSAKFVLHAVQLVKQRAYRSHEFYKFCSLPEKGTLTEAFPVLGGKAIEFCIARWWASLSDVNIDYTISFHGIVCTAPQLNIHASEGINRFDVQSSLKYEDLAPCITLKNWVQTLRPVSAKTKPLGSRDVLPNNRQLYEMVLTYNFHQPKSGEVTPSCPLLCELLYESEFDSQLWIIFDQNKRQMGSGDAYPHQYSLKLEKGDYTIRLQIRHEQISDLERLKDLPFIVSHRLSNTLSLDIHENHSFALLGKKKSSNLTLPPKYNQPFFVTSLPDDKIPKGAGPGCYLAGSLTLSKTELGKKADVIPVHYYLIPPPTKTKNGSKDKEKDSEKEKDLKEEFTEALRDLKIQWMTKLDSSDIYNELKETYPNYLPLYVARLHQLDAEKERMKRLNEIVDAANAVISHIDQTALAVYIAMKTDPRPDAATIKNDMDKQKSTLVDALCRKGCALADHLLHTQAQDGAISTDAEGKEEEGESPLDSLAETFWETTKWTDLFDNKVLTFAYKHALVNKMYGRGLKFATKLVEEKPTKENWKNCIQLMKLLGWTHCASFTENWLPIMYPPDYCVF

SMILES	CT-L Activation factor [3]	PA Activation factor [4]	T-L Activation factor [5]	other results
CC(C)C[C@H](NC(=O)[C@H](Cc1ccccc1)NC(=O)c1cnccn1)B(O)O [Bortezomib, bortezomib]	–	–	–	patients with adverse events [1]: 30%
CC(=O)N[C@@H](CSC(=O)[C@]1([C@@H](O)C(C)C)NC(=O)[C@H](C)[C@@H]1O)C(=O)O [Lactacystin, lactacystin]	–	–	–	inhibition of cathepsin A (cathepsin A): inhibited; inhibition of tripeptidyl peptidase II [2]: inhibited
CC(C)(C)OC(=O)NCCCCNC(=O)[C@H](Cc1c[nH]c2ccccc12)NC(=O)[C@H](CCCN(C(=N)NC(=O)OCc1ccccc1)C(=O)OCc1ccccc1)NC(=O)[C@H](Cc1ccc(OCc2ccccc2)cc1)NC(=O)OC(C)(C)C [SP311C, N-Boc-Tyr(Bn)-Arg(Z)-2-Trp-NH(CH2)4NHBoc]	1.3	1.2	1.9	–
C/C=C\NC(=O)[C@H]1NC(=O)[C@H](CC(N)=O)NC(=O)[C@@H](NC(=O)C(=O)[C@@H](C)CC)Cc2ccc(O)c(c2)-c2cccc3c2NC(=O)[C@@]3(O)[C@@H]1O [TMC-95A]	–	–	–	inhibition of m-calpain (m-calpain): no inhibition; inhibition of cathepsin-L (cathepsin-L): no inhibition; inhibition of trypsin (trypsin): no inhibition
CC(C)(C)OC(=O)NCCCCNC(=O)[C@H](Cc1c[nH]c2ccccc12)NC(=O)[C@H](CC(N)=O)NC(=O)[C@H](Cc1ccc(OCc2ccccc2)cc1)NC(=O)OC(C)(C)C [SP323C2, N-Boc-Tyr(Bn)-Asn-Trp-NH(CH2)4NHBoc]	1.6	1.2	2.2	–
C[C@H](NC(=O)[C@H](Cc1ccc(OCc2ccccc2)cc1)NC(=O)OC(C)(C)C)C(=O)N[C@@H](Cc1c[nH]c2ccccc12)C(=O)NCCCCNC(=O)OC(C)(C)C [SP305R, N-Boc-Tyr(Bn)-Ala-Trp-NH(CH2)4NHBoc]	1.5	1.2	3.2	–
